Measurements as given in paper PMC11242946, “Inhibition of ACE2–S Protein Interaction by a Short Functional Peptide with a Boomerang Structure” (Molecules, 2024).
No end group written: not given here.

Assays:
ACE2 = conditions: short peptide; ref not given ("It was reported"); cited from earlier work
Source text: To date, only a small number of drug design studies have focused on the SARS-CoV-2 receptor, with a particular emphasis on ACE2 antagonists. Exogenous proteins have disadvantages such as low efficiency in drug delivery and immunogenicity, whereas small-molecule ligands pose limitations such as challenges for manufacturing and increased toxicity. Thus, direct interception of the amino acids of ACE2 could be a simple and effective method. The length of the ACE2-derived peptide (CSNP1) is 16 amino acids.

Vero E6 cells [1] = assay: MTT cytotoxicity, Vero E6; assay type: cell-based, monkey; conditions: 24 h; for cell viability: MTT, % of untreated cells
Protocol: (§1) Vero E6 and A549 cells were cultured in DMEM containing 10% FBS and 5% CO2 at 37 degrees centigrade (°C). The medium was renewed once every three days. The cells were passaged when they attained confluence.
(§2) The cytotoxicity of the functional peptide was assessed using the MTT test. The test cells were seeded onto 96-well plates and grown overnight. The functional peptide K5 was introduced at concentrations of 0.1, 1, 10, and 100 μM for a 24 h incubation. MTT was then added, and cells were incubated for an additional 2 h. The medium was removed and replaced with 100 μL of DMSO. A measurement of absorbance was conducted at 492 nm (OD492) using a microplate reader (EnSpire, Cleveland, OH, USA). Cells without treatment were set as blanks, and the results are expressed as a percentage of the untreated cells.

[2] = biological target: ACE2–S protein interaction (Vero E6 cells) (Chlorocebus aethiops, UniProt Q1LZX8); assay: Inhibition of S1 protein-ACE2 interaction, flow cytometry, Vero E6; assay type: cell-based, monkey; conditions: K5 1 h pre-incubation, S1 protein 10 μg/mL 1 h
A549 cells = assay: MTT cytotoxicity, A549; assay type: cell-based, human; conditions: 24 h; for cell viability: MTT, % of untreated cells
Protocol: as §1, §2

Vero E6 cells [3] = assay: Cellular adsorption of FITC-labeled peptide (fluorescence microscopy); assay type: cell-based, monkey; conditions: cells treated solely with FITC
Protocol: The cellular adsorption behaviors of K5 were examined using FITC-labeled peptide. Vero E6 cells were incubated in 24-well plates in medium containing 100 μM of FITC-labeled peptide for two different durations: 1 min and 1 h. Subsequently, the cells were washed three times using a PBS solution containing heparin, then stained with DAPI for 30 min. Finally, they were fixed using a 4% PFA solution and then observed using an inverted fluorescence microscope manufactured by Zeiss in Oberkochen, Germany. The control group consisted of cells with only functional peptides added or only FITC added.

Substance: EDLFYQ [SAPs]
- IC50 (ACE2): at the mM level

Substance: KYPAY [K5, KYPAY]
- cell viability (Vero E6 cells [1]; 0.1 μM): 108%
- cell viability (Vero E6 cells [1]; 1 μM): 105%
- cell viability (Vero E6 cells [1]; 10 μM): 96%
- cell viability (Vero E6 cells [1]; 100 μM): 94%
- change in cell viability / toxicity (Vero E6 cells [1]; 0.1-100 μM, physiological pH, Vero E6): no discernible change in cell viability
- MFI reduction ([2]; FBS, 10 μM): 50%
- MFI decrease ([2]; FBS, 100 μM): 70%
- MFI decrease ([2]; PBS, 1 μM): approximately 25%
- inhibition at 100 µM ([2]; Vero C1008, PBS, 100 μM, read-out: MFI decrease (inhibition)): 78%
- cell viability (A549 cells; 0.1 μM): 93%
- cell viability (A549 cells; 1 μM): 100%
- cell viability (A549 cells; 10 μM): 103%
- cell viability (A549 cells; 100 μM): 101%
- change in cell viability / toxicity (A549 cells; 0.1-100 μM, physiological pH, A549): no discernible change in cell viability

Substance: fluorescein isothiocyanate [FITC]
- cellular adsorption (fluorescence), FITC alone (Vero E6 cells [3]): did not exhibit any fluorescence
